From the kinase profiling compilation of Christmann-Franck et al. (2016)

Key:
Experiment in all cases: radiometric filter-binding kinase assay
PAK4 (human) = PAK4 (human) (UniProt O96013)
IGF1R (human) = IGF1R (human) (UniProt P08069)
RIPK2 (human) = RIPK2 (human) (UniProt O43353)
PIM3 (human) = PIM3 (human) (UniProt Q86V86)
CSNK1D (human) = CSNK1D (human) (UniProt P48730)
MARK2 (human) = MARK2 (human) (UniProt Q7KZI7)
DYRK1A (human) = DYRK1A (human) (UniProt Q13627)
CLK2 (human) = CLK2 (human) (UniProt P49760)
CHEK1 (human) = CHEK1 (human) (UniProt O14757)
PAK7 (human) = PAK7 (human) (UniProt Q9P286)
[1] = test system: AKT2 (human), P31751 [S474D]
IKBKE (human) = IKBKE (human) (UniProt Q14164)
MAPKAPK2 (human) = MAPKAPK2 (human) (UniProt P49137)
MAP3K7 TAB1 (human) = MAP3K7 TAB1 (human) (UniProt Q15750+O43318)
MAPK12 (human) = MAPK12 (human) (UniProt P53778)
PKN2 (human) = PKN2 (human) (UniProt Q16513)
PAK6 (human) = PAK6 (human) (UniProt Q9NQU5)
MST4 (human) = MST4 (human) (UniProt Q9P289)
PIM2 (human) = PIM2 (human) (UniProt Q9P1W9)
RPS6KA5 KD1 KD2 (human) = RPS6KA5 KD1 KD2 (human) (UniProt O75582)
NEK2 (human) = NEK2 (human) (UniProt P51955)
PLK1 (human) = PLK1 (human) (UniProt P53350)
MAPK3 (human) = MAPK3 (human) (UniProt P27361)
RPS6KA3 KD1 KD2 (human) = RPS6KA3 KD1 KD2 (human) (UniProt P51812)
[2] = test system: SGK1 (human), O00141 [S422D]
MAPK14 (human) = MAPK14 (human) (UniProt Q16539)
[3] = test system: PAK2 (human), Q13177 [T402E]
SRPK1 (human) = SRPK1 (human) (UniProt Q96SB4)
CAMKK2 (human) = CAMKK2 (human) (UniProt Q96RR4)
NEK6 (human) = NEK6 (human) (UniProt Q9HC98)
HIPK3 (human) = HIPK3 (human) (UniProt Q9H422)
MARK1 (human) = MARK1 (human) (UniProt Q9P0L2)
IRAK4 (human) = IRAK4 (human) (UniProt Q9NWZ3)
EPHA4 (human) = EPHA4 (human) (UniProt P54764); conditions: compound 10.0 µM

HIPK3 (human), sequence (Q9H422 whole entry, looked up): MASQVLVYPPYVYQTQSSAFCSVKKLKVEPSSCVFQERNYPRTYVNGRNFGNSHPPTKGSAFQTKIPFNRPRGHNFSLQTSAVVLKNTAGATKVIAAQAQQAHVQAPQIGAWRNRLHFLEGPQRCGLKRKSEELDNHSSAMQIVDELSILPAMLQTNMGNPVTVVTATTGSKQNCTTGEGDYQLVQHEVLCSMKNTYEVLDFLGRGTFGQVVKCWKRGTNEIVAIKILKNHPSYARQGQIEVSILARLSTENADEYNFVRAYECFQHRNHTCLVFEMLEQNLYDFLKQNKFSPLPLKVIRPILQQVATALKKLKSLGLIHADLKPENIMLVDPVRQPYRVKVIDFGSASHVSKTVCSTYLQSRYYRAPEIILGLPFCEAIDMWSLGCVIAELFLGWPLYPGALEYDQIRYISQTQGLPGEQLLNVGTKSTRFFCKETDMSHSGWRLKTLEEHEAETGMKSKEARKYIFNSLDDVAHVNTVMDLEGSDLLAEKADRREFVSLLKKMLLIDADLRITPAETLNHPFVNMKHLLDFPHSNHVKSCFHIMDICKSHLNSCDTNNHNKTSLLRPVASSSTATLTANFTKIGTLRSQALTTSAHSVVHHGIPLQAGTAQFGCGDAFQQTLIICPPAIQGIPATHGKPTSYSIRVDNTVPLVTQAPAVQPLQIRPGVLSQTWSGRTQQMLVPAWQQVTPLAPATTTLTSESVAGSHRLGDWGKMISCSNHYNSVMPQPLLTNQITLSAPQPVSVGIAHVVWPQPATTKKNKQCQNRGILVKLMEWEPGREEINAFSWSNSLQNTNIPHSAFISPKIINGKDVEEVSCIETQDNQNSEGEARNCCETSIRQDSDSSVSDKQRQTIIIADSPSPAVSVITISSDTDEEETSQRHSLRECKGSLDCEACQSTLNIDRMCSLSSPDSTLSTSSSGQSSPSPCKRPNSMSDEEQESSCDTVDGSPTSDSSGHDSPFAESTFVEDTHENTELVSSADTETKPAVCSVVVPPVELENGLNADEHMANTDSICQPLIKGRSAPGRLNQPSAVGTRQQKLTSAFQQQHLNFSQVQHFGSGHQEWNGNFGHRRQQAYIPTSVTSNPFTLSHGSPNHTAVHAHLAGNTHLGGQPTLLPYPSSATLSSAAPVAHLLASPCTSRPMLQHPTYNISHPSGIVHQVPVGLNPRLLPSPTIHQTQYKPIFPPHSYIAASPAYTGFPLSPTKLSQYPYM
IRAK4 (human), sequence (Q9NWZ3 whole entry, looked up): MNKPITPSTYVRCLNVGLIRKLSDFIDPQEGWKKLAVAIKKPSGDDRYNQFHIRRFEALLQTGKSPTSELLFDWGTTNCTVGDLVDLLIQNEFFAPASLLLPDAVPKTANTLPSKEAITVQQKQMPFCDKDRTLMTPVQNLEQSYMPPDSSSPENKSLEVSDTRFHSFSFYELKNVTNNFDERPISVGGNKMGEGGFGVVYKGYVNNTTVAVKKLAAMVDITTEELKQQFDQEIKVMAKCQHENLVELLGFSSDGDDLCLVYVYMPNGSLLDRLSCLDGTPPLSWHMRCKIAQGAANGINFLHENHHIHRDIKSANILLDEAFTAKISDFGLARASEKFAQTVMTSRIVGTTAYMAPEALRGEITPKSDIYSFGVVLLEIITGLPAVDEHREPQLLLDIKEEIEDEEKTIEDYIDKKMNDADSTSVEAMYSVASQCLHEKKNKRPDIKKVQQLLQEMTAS
PAK7 (human), sequence (Q9P286 whole entry, looked up): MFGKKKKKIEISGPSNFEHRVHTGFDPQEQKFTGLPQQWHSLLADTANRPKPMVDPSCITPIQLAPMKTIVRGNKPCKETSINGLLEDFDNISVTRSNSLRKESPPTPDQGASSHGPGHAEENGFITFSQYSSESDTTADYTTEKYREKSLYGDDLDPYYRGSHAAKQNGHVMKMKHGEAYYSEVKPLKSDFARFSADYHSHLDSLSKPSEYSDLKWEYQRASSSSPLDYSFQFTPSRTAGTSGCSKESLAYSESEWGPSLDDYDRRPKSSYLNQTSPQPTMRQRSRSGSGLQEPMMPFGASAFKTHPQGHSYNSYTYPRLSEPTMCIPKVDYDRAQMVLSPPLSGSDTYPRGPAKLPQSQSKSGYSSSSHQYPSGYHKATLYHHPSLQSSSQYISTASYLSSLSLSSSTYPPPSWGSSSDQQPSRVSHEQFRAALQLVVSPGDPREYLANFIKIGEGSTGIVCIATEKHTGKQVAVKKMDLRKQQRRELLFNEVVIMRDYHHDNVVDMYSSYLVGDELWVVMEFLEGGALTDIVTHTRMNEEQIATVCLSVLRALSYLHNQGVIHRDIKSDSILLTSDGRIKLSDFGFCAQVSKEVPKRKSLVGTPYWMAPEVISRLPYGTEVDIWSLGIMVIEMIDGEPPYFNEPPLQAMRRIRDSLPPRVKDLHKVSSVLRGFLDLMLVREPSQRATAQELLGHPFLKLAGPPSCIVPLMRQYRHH
SGK1 (human), O00141 [S422D], sequence (O00141 whole entry S422D, looked up): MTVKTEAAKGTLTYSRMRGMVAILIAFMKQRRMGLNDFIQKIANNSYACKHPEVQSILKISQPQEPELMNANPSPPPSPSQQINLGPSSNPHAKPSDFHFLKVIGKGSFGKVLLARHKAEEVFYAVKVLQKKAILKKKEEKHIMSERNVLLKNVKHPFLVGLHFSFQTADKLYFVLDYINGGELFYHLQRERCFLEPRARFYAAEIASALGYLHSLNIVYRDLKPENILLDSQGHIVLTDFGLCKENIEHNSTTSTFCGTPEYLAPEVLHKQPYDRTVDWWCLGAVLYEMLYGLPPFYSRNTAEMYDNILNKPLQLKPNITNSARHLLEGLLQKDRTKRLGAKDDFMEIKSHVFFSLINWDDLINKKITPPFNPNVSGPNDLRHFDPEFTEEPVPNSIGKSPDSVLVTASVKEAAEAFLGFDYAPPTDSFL
NEK6 (human), sequence (Q9HC98 whole entry, looked up): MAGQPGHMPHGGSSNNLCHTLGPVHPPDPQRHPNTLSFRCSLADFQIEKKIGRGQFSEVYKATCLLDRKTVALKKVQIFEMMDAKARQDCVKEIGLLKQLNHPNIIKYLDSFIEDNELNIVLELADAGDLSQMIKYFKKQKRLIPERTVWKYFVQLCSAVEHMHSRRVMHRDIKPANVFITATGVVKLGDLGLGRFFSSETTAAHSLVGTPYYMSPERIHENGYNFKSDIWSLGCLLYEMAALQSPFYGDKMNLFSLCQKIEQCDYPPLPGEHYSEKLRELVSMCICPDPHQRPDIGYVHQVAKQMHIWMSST
PKN2 (human), sequence (Q16513 whole entry, looked up): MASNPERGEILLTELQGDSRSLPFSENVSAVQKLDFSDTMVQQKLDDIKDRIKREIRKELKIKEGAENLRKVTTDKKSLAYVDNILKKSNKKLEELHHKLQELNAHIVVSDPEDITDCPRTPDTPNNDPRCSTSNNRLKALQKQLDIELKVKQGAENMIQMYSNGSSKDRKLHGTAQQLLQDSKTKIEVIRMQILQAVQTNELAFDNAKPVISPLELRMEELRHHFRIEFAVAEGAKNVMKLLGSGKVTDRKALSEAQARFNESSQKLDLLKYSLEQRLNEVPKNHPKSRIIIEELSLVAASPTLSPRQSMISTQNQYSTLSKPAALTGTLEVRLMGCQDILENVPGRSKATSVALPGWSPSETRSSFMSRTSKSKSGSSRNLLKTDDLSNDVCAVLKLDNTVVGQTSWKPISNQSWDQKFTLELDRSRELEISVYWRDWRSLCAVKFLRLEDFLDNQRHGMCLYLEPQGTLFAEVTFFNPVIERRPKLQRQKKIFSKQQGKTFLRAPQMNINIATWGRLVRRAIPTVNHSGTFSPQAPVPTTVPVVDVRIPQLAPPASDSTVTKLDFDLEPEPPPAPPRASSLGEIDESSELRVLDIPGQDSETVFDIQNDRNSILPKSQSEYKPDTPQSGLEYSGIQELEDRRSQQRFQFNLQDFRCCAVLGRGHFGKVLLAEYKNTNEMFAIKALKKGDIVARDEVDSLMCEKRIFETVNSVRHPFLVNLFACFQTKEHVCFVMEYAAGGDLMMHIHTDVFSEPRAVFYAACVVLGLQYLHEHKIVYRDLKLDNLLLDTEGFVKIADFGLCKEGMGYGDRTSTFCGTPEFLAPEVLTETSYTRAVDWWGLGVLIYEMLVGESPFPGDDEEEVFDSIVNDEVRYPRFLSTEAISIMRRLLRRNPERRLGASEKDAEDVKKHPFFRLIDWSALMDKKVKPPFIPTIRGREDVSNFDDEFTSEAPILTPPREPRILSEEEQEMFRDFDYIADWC
SRPK1 (human), sequence (Q96SB4 whole entry, looked up): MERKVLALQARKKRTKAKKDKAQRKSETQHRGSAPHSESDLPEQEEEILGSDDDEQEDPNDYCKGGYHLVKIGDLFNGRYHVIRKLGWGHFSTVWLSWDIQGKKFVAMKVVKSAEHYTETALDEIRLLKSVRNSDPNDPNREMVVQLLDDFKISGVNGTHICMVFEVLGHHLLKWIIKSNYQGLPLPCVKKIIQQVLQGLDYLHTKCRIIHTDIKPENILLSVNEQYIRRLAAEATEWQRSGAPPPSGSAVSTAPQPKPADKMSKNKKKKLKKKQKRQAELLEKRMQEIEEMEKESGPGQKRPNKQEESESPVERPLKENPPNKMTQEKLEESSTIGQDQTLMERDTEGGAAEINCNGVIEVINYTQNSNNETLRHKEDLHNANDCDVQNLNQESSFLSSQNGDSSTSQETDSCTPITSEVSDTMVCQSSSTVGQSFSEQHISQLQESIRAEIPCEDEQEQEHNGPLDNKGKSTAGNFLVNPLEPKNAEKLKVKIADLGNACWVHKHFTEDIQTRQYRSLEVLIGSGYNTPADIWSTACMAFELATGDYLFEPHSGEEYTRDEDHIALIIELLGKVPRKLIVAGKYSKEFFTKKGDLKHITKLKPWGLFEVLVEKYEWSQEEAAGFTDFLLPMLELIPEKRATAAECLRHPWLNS

## Cc1nc(-c2ccc(OCC(C)C)c(C#N)c2)sc1C(=O)O
PAK4 (human); compound 1.0 µM
  residual activity: 85%
PAK4 (human); compound 10.0 µM
  residual activity: 67%
IGF1R (human); compound 1.0 µM
  residual activity: 93%
IGF1R (human); compound 10.0 µM
  residual activity: 89%
RIPK2 (human); compound 1.0 µM
  residual activity: 97%
RIPK2 (human); compound 10.0 µM
  residual activity: 88%
PIM3 (human); compound 1.0 µM
  residual activity: 66%
PIM3 (human); compound 10.0 µM
  residual activity: 19%
CSNK1D (human); compound 1.0 µM
  residual activity: 79%
CSNK1D (human); compound 10.0 µM
  residual activity: 93%
MARK2 (human); compound 1.0 µM
  residual activity: 60%
MARK2 (human); compound 10.0 µM
  residual activity: 59%
DYRK1A (human); compound 1.0 µM
  residual activity: 102%
DYRK1A (human); compound 10.0 µM
  residual activity: 85%
CLK2 (human); compound 1.0 µM
  residual activity: 81%
CLK2 (human); compound 10.0 µM
  residual activity: 77%
CHEK1 (human); compound 1.0 µM
  residual activity: 85%
CHEK1 (human); compound 10.0 µM
  residual activity: 86%
PAK7 (human); compound 1.0 µM
  residual activity: 101%
PAK7 (human); compound 10.0 µM
  residual activity: 88%
[1]; compound 1.0 µM
  residual activity: 109%
[1]; compound 10.0 µM
  residual activity: 108%
IKBKE (human); compound 1.0 µM
  residual activity: 138%
IKBKE (human); compound 10.0 µM
  residual activity: 100%
MAPKAPK2 (human); compound 10.0 µM
  residual activity: 44%
MAP3K7 TAB1 (human); compound 1.0 µM
  residual activity: 88%
MAP3K7 TAB1 (human); compound 10.0 µM
  residual activity: 81%
MAPK12 (human); compound 1.0 µM
  residual activity: 84%
MAPK12 (human); compound 10.0 µM
  residual activity: 96%
PKN2 (human); compound 1.0 µM
  residual activity: 120%
PAK6 (human); compound 1.0 µM
  residual activity: 97%
PAK6 (human); compound 10.0 µM
  residual activity: 107%
MST4 (human); compound 1.0 µM
  residual activity: 94%
MST4 (human); compound 10.0 µM
  residual activity: 90%
PIM2 (human); compound 1.0 µM
  residual activity: 110%
PIM2 (human); compound 10.0 µM
  residual activity: 88%
RPS6KA5 KD1 KD2 (human); compound 1.0 µM
  residual activity: 94%
RPS6KA5 KD1 KD2 (human); compound 10.0 µM
  residual activity: 102%
NEK2 (human); compound 1.0 µM
  residual activity: 89%
NEK2 (human); compound 10.0 µM
  residual activity: 98%
PLK1 (human); compound 1.0 µM
  residual activity: 94%
PLK1 (human); compound 10.0 µM
  residual activity: 91%
MAPK3 (human); compound 10.0 µM
  residual activity: 95%
RPS6KA3 KD1 KD2 (human); compound 1.0 µM
  residual activity: 99%
RPS6KA3 KD1 KD2 (human); compound 10.0 µM
  residual activity: 92%
[2]; compound 1.0 µM
  residual activity: 99%
[2]; compound 10.0 µM
  residual activity: 98%
MAPK14 (human); compound 1.0 µM
  residual activity: 105%
[3]; compound 1.0 µM
  residual activity: 95%
[3]; compound 10.0 µM
  residual activity: 90%
SRPK1 (human); compound 1.0 µM
  residual activity: 99%
SRPK1 (human); compound 10.0 µM
  residual activity: 89%
CAMKK2 (human); compound 1.0 µM
  residual activity: 92%
CAMKK2 (human); compound 10.0 µM
  residual activity: 73%
NEK6 (human); compound 1.0 µM
  residual activity: 100%
NEK6 (human); compound 10.0 µM
  residual activity: 99%
HIPK3 (human); compound 1.0 µM
  residual activity: 108%
HIPK3 (human); compound 10.0 µM
  residual activity: 119%
MARK1 (human); compound 1.0 µM
  residual activity: 96%
MARK1 (human); compound 10.0 µM
  residual activity: 104%
IRAK4 (human); compound 1.0 µM
  residual activity: 90%
IRAK4 (human); compound 10.0 µM
  residual activity: 98%
EPHA4 (human)
  residual activity: 107%

## NS(=O)(=O)OC[C@@H]1C[C@@H](n2ccc3c(N[C@H]4CCc5ccccc54)ncnc32)C[C@@H]1O
PAK4 (human); compound 1.0 µM
  residual activity: 101%
PAK4 (human); compound 10.0 µM
  residual activity: 106%
IGF1R (human); compound 1.0 µM
  residual activity: 94%
IGF1R (human); compound 10.0 µM
  residual activity: 88%
RIPK2 (human); compound 1.0 µM
  residual activity: 107%
RIPK2 (human); compound 10.0 µM
  residual activity: 121%
PIM3 (human); compound 10.0 µM
  residual activity: 78%
CSNK1D (human); compound 1.0 µM
  residual activity: 86%
CSNK1D (human); compound 10.0 µM
  residual activity: 84%
MARK2 (human); compound 1.0 µM
  residual activity: 90%
MARK2 (human); compound 10.0 µM
  residual activity: 88%
DYRK1A (human); compound 1.0 µM
  residual activity: 96%
DYRK1A (human); compound 10.0 µM
  residual activity: 103%
CLK2 (human); compound 1.0 µM
  residual activity: 127%
CHEK1 (human); compound 1.0 µM
  residual activity: 91%
CHEK1 (human); compound 10.0 µM
  residual activity: 98%
PAK7 (human); compound 10.0 µM
  residual activity: 89%
[1]; compound 10.0 µM
  residual activity: 88%
IKBKE (human); compound 1.0 µM
  residual activity: 73%
IKBKE (human); compound 10.0 µM
  residual activity: 78%
MAPKAPK2 (human); compound 1.0 µM
  residual activity: 88%
MAPKAPK2 (human); compound 10.0 µM
  residual activity: 93%
MAP3K7 TAB1 (human); compound 1.0 µM
  residual activity: 107%
MAP3K7 TAB1 (human); compound 10.0 µM
  residual activity: 105%
MAPK12 (human); compound 1.0 µM
  residual activity: 101%
MAPK12 (human); compound 10.0 µM
  residual activity: 95%
PKN2 (human); compound 1.0 µM
  residual activity: 90%
PKN2 (human); compound 10.0 µM
  residual activity: 92%
PAK6 (human); compound 1.0 µM
  residual activity: 94%
PAK6 (human); compound 10.0 µM
  residual activity: 91%
MST4 (human); compound 1.0 µM
  residual activity: 83%
MST4 (human); compound 10.0 µM
  residual activity: 88%
PIM2 (human); compound 10.0 µM
  residual activity: 101%
RPS6KA5 KD1 KD2 (human); compound 1.0 µM
  residual activity: 103%
RPS6KA5 KD1 KD2 (human); compound 10.0 µM
  residual activity: 110%
NEK2 (human); compound 1.0 µM
  residual activity: 109%
NEK2 (human); compound 10.0 µM
  residual activity: 100%
PLK1 (human); compound 1.0 µM
  residual activity: 93%
PLK1 (human); compound 10.0 µM
  residual activity: 95%
MAPK3 (human); compound 1.0 µM
  residual activity: 77%
MAPK3 (human); compound 10.0 µM
  residual activity: 73%
RPS6KA3 KD1 KD2 (human); compound 1.0 µM
  residual activity: 100%
RPS6KA3 KD1 KD2 (human); compound 10.0 µM
  residual activity: 96%
[2]; compound 1.0 µM
  residual activity: 95%
[2]; compound 10.0 µM
  residual activity: 112%
MAPK14 (human); compound 10.0 µM
  residual activity: 102%
[3]; compound 1.0 µM
  residual activity: 98%
[3]; compound 10.0 µM
  residual activity: 93%
SRPK1 (human); compound 1.0 µM
  residual activity: 92%
SRPK1 (human); compound 10.0 µM
  residual activity: 102%
CAMKK2 (human); compound 1.0 µM
  residual activity: 96%
CAMKK2 (human); compound 10.0 µM
  residual activity: 108%
NEK6 (human); compound 10.0 µM
  residual activity: 102%
HIPK3 (human); compound 1.0 µM
  residual activity: 84%
HIPK3 (human); compound 10.0 µM
  residual activity: 89%
MARK1 (human); compound 1.0 µM
  residual activity: 100%
MARK1 (human); compound 10.0 µM
  residual activity: 107%
IRAK4 (human); compound 10.0 µM
  residual activity: 99%
EPHA4 (human)
  residual activity: 105%
